In publication PMC6194350, “Catalytic Performance of a Class III Old Yellow Enzyme and Its Cysteine Variants” (Frontiers in Microbiology, 2018):

Experiments:
Type in all cases: biochemical
OYERo2a (WT) [1] = target: T1, OYERo2a (WT) (Rhodococcus opacus, UniProt A0A1B1KA86, C25S, form not given); experiment: steady-state kinetics, BNAH consumption at […] nm; details: electron donor; 1 mM N-methylmaleimide, 50 mM phosphate pH 7.1, 25°C
T1 construct: gene O4328_33150; FMN 1:1; dimer by gel filtration; single Cys25
T1 sequence (A0A1B1KA86 entry or part of it C25S, form open): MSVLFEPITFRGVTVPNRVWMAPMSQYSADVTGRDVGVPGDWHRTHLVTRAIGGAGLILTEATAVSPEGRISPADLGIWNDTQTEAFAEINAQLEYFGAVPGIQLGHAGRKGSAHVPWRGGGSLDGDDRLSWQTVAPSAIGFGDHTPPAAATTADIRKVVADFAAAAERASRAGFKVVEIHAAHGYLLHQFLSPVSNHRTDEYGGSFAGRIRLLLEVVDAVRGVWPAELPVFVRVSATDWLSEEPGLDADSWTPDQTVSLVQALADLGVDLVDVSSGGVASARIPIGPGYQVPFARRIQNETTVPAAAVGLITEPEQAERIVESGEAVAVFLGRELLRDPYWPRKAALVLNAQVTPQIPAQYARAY

OYERo2a (WT) [2] = target: T2, OYERo2a (WT) (Rhodococcus opacus, UniProt A0A1B1KA86, C25G, form not given); experiment: steady-state kinetics, BNAH consumption at […] nm; details: electron donor; 1 mM N-methylmaleimide, 50 mM phosphate pH 7.1, 25°C
T2 construct: gene O4328_33150; FMN 1:1; dimer by gel filtration; single Cys25
T2 sequence (A0A1B1KA86 entry or part of it C25G, form open): as the sequence (A0A1B1KA86 entry or part of it C25S, form open) above, with S25G counted along it

OYERo2a (WT) [3] = target: T3, OYERo2a (WT) (Rhodococcus opacus, UniProt A0A1B1KA86, C25A, form not given); experiment: steady-state kinetics, BNAH consumption at […] nm; details: electron donor; 1 mM N-methylmaleimide, 50 mM phosphate pH 7.1, 25°C
T3 construct: gene O4328_33150; FMN 1:1; dimer by gel filtration; single Cys25
T3 sequence (A0A1B1KA86 entry or part of it C25A, form open): as the sequence (A0A1B1KA86 entry or part of it C25S, form open) above, with S25A counted along it

OYERo2a (WT) [4] = target: T4, OYERo2a (WT) (Rhodococcus opacus, UniProt A0A1B1KA86); experiment: steady-state kinetics, BNAH consumption at […] nm; details: electron donor; 1 mM N-methylmaleimide, 50 mM phosphate pH 7.1, 25°C
T4 construct: gene O4328_33150; FMN 1:1; dimer by gel filtration; single Cys25
T4 sequence (A0A1B1KA86 entry or part of it): as the sequence (A0A1B1KA86 entry or part of it C25S, form open) above, with S25C counted along it

OYERo2a (WT) [5] = target: T3, OYERo2a (WT); experiment: steady-state kinetics, NADPH consumption at […] nm; details: 50 mM phosphate pH 7.1, 25°C
OYERo2a (WT) [6] = target: T4, OYERo2a (WT); experiment: steady-state kinetics, NADPH consumption at […] nm; details: 50 mM phosphate pH 7.1, 25°C
OYERo2a (WT) [7] = target: T1, OYERo2a (WT); experiment: steady-state kinetics, NADPH consumption at […] nm; details: 50 mM phosphate pH 7.1, 25°C
OYERo2a (WT) [8] = target: T2, OYERo2a (WT); experiment: steady-state kinetics, NADPH consumption at […] nm; details: 50 mM phosphate pH 7.1, 25°C
OYERo2a (WT) [9] = target: T4, OYERo2a (WT); experiment: residual activity after pre-incubation; details: covalent (Cys25); 10 mM, 120 min, 50 mM phosphate pH 7.1, 4°C, dark, oxidized enzyme

`NC(=O)C1=CN(Cc2ccccc2)C=CC1` [BNAH] gave a Km (OYERo2a (WT) [1]) of 239 ± 24.3 µM, a Km (OYERo2a (WT) [2]) of 517 ± 45 µM and a Km (OYERo2a (WT) [3]) of 230 ± 17.8 µM. For the same molecule, the Km (OYERo2a (WT) [4]) was 169 ± 12.4 µM.

For `NC(=O)C1=CN([C@@H]2O[C@H](COP(=O)(O)OP(=O)(O)OC[C@H]3O[C@@H](n4cnc5c(N)ncnc54)[C@H](OP(=O)(O)O)[C@@H]3O)[C@@H](O)[C@H]2O)C=CC1` [NADPH], the Km (OYERo2a (WT) [5]; electron donor, 1 mM N-methylmaleimide, read-out: C25A / NADPH) was 121 ± 8.7 µM, the Km (OYERo2a (WT) [6]; electron donor, 1 mM N-methylmaleimide, read-out: WT / NADPH) was 34.8 ± 2 µM and the Km (OYERo2a (WT) [7]; electron donor, 1 mM N-methylmaleimide, read-out: C25S / NADPH) was 76.9 ± 4.1 µM. It also gave a Km (OYERo2a (WT) [8]; electron donor, 1 mM N-methylmaleimide, read-out: C25G / NADPH) of 55.2 ± 2.3 µM.

In the case of `CN1C(=O)C=CC1=O` [N-methylmaleimide], the Km (OYERo2a (WT) [5]; 180 μM NADPH, read-out: C25A) is reported as 9.1 µM, the Km (OYERo2a (WT) [6]; 180 μM NADPH, read-out: WT) is reported as 9.6 µM and the Km (OYERo2a (WT) [7]; 180 μM NADPH, read-out: C25S) is reported as 30.4 µM. For the same molecule, the Km (OYERo2a (WT) [8]; 180 μM NADPH, read-out: C25G) was 94.4 µM and the relative activity (OYERo2a (WT) [9]) was “while the OYERo2a became almost completely inactivated”.

`O=C1C=CCCC1` [2-cyclohexen-1-one] was tested, and the Km (OYERo2a (WT) [6]; 180 μM NADPH, read-out: WT) was 3500 µM and the Km (OYERo2a (WT) [7]; 180 μM NADPH, read-out: C25S) was 8900 µM.
